“Also recorded” adds a separate entry of the source.

From article PMC4979516, “Quinazoline-based tricyclic compounds that regulate programmed cell death, induce neuronal differentiation, and are curative in animal models for excitotoxicity and hereditary brain disease” (Cell Death Discovery, 2015) come the findings set out here.

The subject of data set [1] is U118MG cells. Briefly: LDH cytotoxicity assay, glutamate-induced cell death of U118MG cells. As to conditions: for Lethal effects of the compound (LDH): compound 10-100 μM by itself or with 35 mM glutamate; for Protection against glutamate-induced cell death (LDH): 35 mM glutamate, compound 10-100 μM, 24 h pretreatment. The protocol:
(1) For U118MG cells, glutamate at a concentration of 35 mM was applied with or without MGV-1. As discussed, glutamate levels in normal healthy brain tissue can average 15 mM, and these levels can be doubled in diseased brain tissue, whereas in cell organelles glutamate levels can be as high as 250 mM (as discussed). […] In more detail, U118MG cells were seeded, 2×10^5 cells per well of 6-well plates and 6×10^3 cells per well of 96-well plates. Twenty-four hours after seeding, U118MG cells were pretreated with MGV-1 (or one of the other compounds) at various concentrations from 0.1 nM–100 μM. Twenty-four hours after the pretreatment, the cells were exposed to 35 mM of glutamate. […] The negative control was vehicle, that is, ethanol with a final concentration of 1%. […] The positive control was exposure to 35 mM of glutamate alone (with 200 μM of glycine).
Wells of 96-well plates were with 6000 cells per well and treated according the protocol presented above. We used the Cytotoxicity Detection Kit (LDH) (Roche Pharmacuticals) according to the manufacturer’s instructions. When cell plasma membranes are damaged, the cytoplasmic enzyme LDH is released into the medium. The amount of formazan formed is proportional to the amount of LDH released.[77] The resulting color intensity is proportional to the number of damaged cells. Absorbance at 492 nm with reference at 690 nm was measured with the Spectrophotometer Zenyth 200 (Anthos) and the results were calculated and normalized according to the formula presented by the manufacturer.

The test system of the next data set is R6-2 mice. In words: R6-2 transgenic mouse model for Huntington disease (lifespan, behavior). Type of data set: in vivo. The settings on record: for Week of age until which 50% of treated R6-2 mice were still alive: 7.5 mg/kg s.c. daily 5 days per week, vehicle: 11th week (2-Cl-MGV-1 study), 10th week (2-Cl-MGV-2 study); for Uncontrollable tremor activity of R6-2 mice: 7.5 mg/kg s.c., data not shown; for Effect on behavior and lifespan of R6-2 mice: pilot studies, s.c. daily 5 days per week, MGV-1 15 mg/kg, PK 11195 15 mg/kg, MGV-2 15 and 7.5 mg/kg. From the text: Huntington disease in humans is a hereditary disease including neurodegeneration leading to degradation in motor performance, continual involuntary movements, tremors, cardiovascular and respiratory impairments, and finally leading to death of the patients having the disease.[88] For this study, R6-2 mice (~120 CAG repeats B6CBA-Tg(HDexon1)62 Gpb/3J) mice were used as a transgenic mouse model for Huntington disease. For this purpose, mice obtained from the Jackson Laboratory were bred. In particular, males hemizygous for Tg(HDexon1)62 Gpb, and females from the wild-type background strain B6CBAF1/J, were bred according to the protocol of Jackson Laboratory.
For tests of drug efficacy, male offspring hemizygous for Tg(HDexon1)62 Gpb were used to determine drug effect on lifespan, motor activity, and general well-being of the animals. Drug treatment for this study consisted of daily (5 continuous days per week) subcutaneous injections in the neck area of mice with 20 μl of: the drug vehicle DMSO (vehicle control), 2-Cl-MGV-1(7.5 mg/kg) and 2-Cl-MGV-2 (7.5 mg/kg). […] Quantities were used according to previous studies regarding TSPO ligands[48] and adapted depending on the findings in the course of the pilot studies. The treatments were given until the animals died a natural death. Behavioral experiments included distance covered in an open field apparatus,[89] freezing,[89] and balance on a rotor-rod.[90] Spontaneous tremor activity was evaluated using a Hamilton–Kinder sensor in a soundproof ventilated apparatus (Kinder Scientific). The assays for locomotor activity, tremors, and body weight were performed on a weekly basis, together with evaluation of the well-being of the mice. Finally, the day of death was noted. As lifespan data were most pronounced, these are presented in the present description of the results. No adverse effects of any of the drug treatments were noted, neither for specific tests, nor for general observations. Importantly, DMSO had no effect by itself as compared with naive mice or saline-injected mice with various behavioral assays.[20]

Data set [2] has as its target T1, 18 kDa translocator protein (TSPO) (Rattus norvegicus, UniProt P16257).
T1 construct: 400 μl of homogenized rat kidney membranes (5 mg of homogenate/ml); from tissue; host or cells: rat kidney (homogenized membranes)
In words: TSPO binding, displacement of [3H]PK 11195 in rat kidney membranes. The protocol: After incubation for 60 min at 4 °C, samples were filtered under vacuum over Whatman GF/C filters and washed three times with 5 ml of 50 mM Tris-HCl buffer, pH 7.4. The filters were incubated in CytoScint (MP Biomedicals) and radioactivity was measured after 12 h with a 1600 CA Tri-Carb liquid scintillation analyzer (Packard). Inhibitory constant (Ki) values were calculated by the equation Ki=IC50/(1+C/Kd), where C=[^3H]
(In general: Displacement assays read how much labelled ligand stays bound in the presence of the test substance.)

For data set [3], the system named is NeuN expression in PC12 cells strain #3. In words: Western blot of NeuN in PC12 strain #3. Type of data set: cell-based, rat. As to conditions: PC12 strain #3, versus vehicle control. The protocol: The relative protein levels of TSPO and other proteins related to neurodifferentiation (including β-actin, NeuN, tubulin-3β), were assayed by immunoblotting with the aid electrophoresis through 12% SDS-polyacrylamide gel, according to previously described methods.[71] A priori, general protein levels were measured by the method of Bradford using BSA as a standard.[75] After electrophoresis, the gels were subjected to electrophoretic transfer to nitrocellulose membranes. Then, the membranes were blocked for 1 h in 5% non-fat milk in 62.5 mM sodium phosphate buffer, pH 7.4, containing 100 mM NaCl, and 0.1% (v/v) Tween-20 (PBS-T) and then incubated for 2 h or overnight at 4 °C with the appropriate antibodies: anti-tubulin-3β 1 : 10 000, anti-NeuN 1 : 1000, anti β-actin 1 : 15 000, and anti-TSPO 1 : 10 000.[73] After washing with TBS-T, the membranes were incubated with IgG secondary antibody linked to horseradish peroxidase (anti-rabbit IgG 1 : 20 000, anti-mouse IgG 1 : 10 000, as appropriate, from Jackson Immunologicals, West Grove, PA, USA) in TBS-T at room temperature. Binding of antibodies to the membrane was detected with the EZ-ECL-detection reagent (Biological Industries), using the ImageQuant LAS 4010 apparatus and Totallab Quant quantitative image analysis of Totallab (Newcastle upon Tyne, England).
On the technique in general: In western blotting, separated proteins are transferred to a membrane and probed.

Data set [4] relates to PC12 cells strain #1 (polygonal cells). In words: Neuronal differentiation (neurite sprouting) of PC12 strain #1. The format is cell-based, rat. As to conditions: strain #1, only polygonal cells.
For data set [5], the system named is U118MG cells. In words: Mitochondrial ROS / cardiolipin oxidation (NAO) assay in U118MG cells exposed to glutamate. Type of data set: cell-based, human. The settings on record: 25 μM compound, 35 mM glutamate. An excerpt:
Cardiolipin is present in the inner mitochondrial membrane, at the contact sites with the outer mitochondrial membrane. By application of NAO, we assayed cardiolipin peroxidation as an indication of mitochondrial ROS generation, as described previously.[71] NAO binds with high affinity to non-oxidized cardiolipin in a 2 : 1 ratio, but with less affinity to oxidized cardiolipin, the latter which is reflected by lower levels of green NAO fluorescence.[78] For our study, cells were collected and centrifuged at 1200×g for 5 min, 4 °C. Cell pellets were re-suspended in 0.5 ml of 0.1 μM NAO and incubated for 30 min at 37 °C in the dark. Then, the cells were washed once with 0.5 ml PBS and transferred into 5 ml FALCON FACS tubes and analyzed with the aid of a BD FACSCalibur flow cytometer using CellQuest software (BD Biosciences, Franklin Lakes, NJ, USA).

In data set [6] the test system is U118MG cells. In words: Mitochondrial membrane potential (JC-1) assay in U118MG cells exposed to glutamate. Type of data set: cell-based, human. As to conditions: 25 μM compound, 35 mM glutamate. An excerpt: JC-1 was used to assay changes in Δψm, as described previously.[71],[79] Owing to charges distributed along JC-1 molecules, they pass unimpaired (charged) mitochondrial membranes and enter the mitochondrial matrix. There the J-molecules form J-aggregates, which emit at 590 nm (orange–red fluorescence). […] The monomers emit at 527 nm (green fluorescence). A decrease in the red–green fluorescence intensity ratio is an indication for mitochondrial depolarization. As a positive control, the proton ionophore carbonyl cyanide m-chlorophenylhydrazone was used as described previously.[71] Cells were collected and prepared for suspension in 10 μg/ml of JC-1 solution in PBS. After incubation at 37 °C for 30 min in the dark, the cells were washed with 0.5 ml of PBS, and the cell suspensions were analyzed with the BD FACSCalibur flow cytometer.

In another data set the test system is PC12 cells. Briefly: Neuronal differentiation of PC12 cells, strain not specified. The format is cell-based, rat. The settings on record: agent by itself; MGV-1 50 μM. The protocol: For our newly developed differentiation method by MGV-1 in combination with glutamate, PC12 cells were plated onto poly-L-lysine coated culture plates and Petri dishes at a relatively low density (5.2×10^3 cells/cm^2 for six-well plates and 3.6×10^3 cells/cm^2 for Petri dishes), in DMEM medium containing 8% heat-inactivated FBS and 8% horse serum. […] Exposure to vehicle alone (culture medium with 1% of ethanol) was used as the control.
The major and determining indication of neural differentiation of PC12 cells is neurite development.[23],[80] […] The number of differentiated cells was determined by visual examination of the captured fields. In particular, a line was drafted at half height of the image and the cell bodies crossed by the line were further analyzed regarding differentiation. […] Cells with at least one identifiable neurite with a length at least equal to the cell body diameter were scored, and their number expressed as a percentage of the total number of cells crossed by said line. In addition, for each of these cells, the length of the longest neurite was determined (using AxioVision Image software, Zeiss). […]

T1 sequence (P16257 whole entry): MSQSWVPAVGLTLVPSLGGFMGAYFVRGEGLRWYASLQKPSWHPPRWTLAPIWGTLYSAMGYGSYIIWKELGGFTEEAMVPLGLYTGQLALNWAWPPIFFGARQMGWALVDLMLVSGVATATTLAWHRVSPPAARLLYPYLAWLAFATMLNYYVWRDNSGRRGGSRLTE

As to `CN(C)C(=O)Oc1nc(-c2ccccc2Cl)nc2ccccc12` [2-Cl-MGV-1, 2-(2-chlorophenyl)quinazolin-4-yl dimethylcarbamate], the “Lethal effects of the compound (LDH)” value with U118MG cells [1] is on record as “very little lethality by itself at any concentration; also recorded: shows the least lethal effects when applied just by itself”. In the data set with R6-2 mice, the “Week of age until which 50% of treated R6-2 mice were still alive” value was determined as 12 week and the “Uncontrollable tremor activity of R6-2 mice” value is “reduction of uncontrollable tremor activity”. Also, the Ki (usually the equilibrium dissociation constant of an inhibitor or competing ligand from its target) in data set [2] stood at 0.825 ± 0.315 µM.

For `CCN(C)C(=O)Oc1nc(-c2ccccc2Cl)nc2ccccc12` [2-Cl-MGV-2, 2-(2-chlorophenyl)quinazolin-4-yl ethyl(methyl)carbamate], in the data set with U118MG cells [1], the “Protection against glutamate-induced cell death (LDH)” value (“Protection” for short) was “protects excellently; also recorded: very effective in protecting against glutamate-induced cell death” and the “Lethal effects of the compound (LDH)” value is given as “undesired lethal effect at high concentrations when given just by itself”. Besides, in the data set with R6-2 mice, the “Week of age until which 50% of treated R6-2 mice were still alive” value came to 12 week and the “Uncontrollable tremor activity of R6-2 mice” value was “reduction of uncontrollable tremor activity”. In data set [2], affinity was put at a Ki of 0.08 ± 0.011 µM.

As to `CCN(CC)C(=O)Oc1nc(-c2ccccc2Cl)nc2ccccc12` [2-Cl-MGV-3, 2-(2-chlorophenyl)quinazolin-4-yl diethylcarbamate], in the data set on U118MG cells [1], the “Lethal effects of the compound (LDH)” value is “undesired lethal effects at 50 and 100 μM both with and without glutamate exposure”. This molecule also came in with a Ki in data set [2] of 0.0026 ± 0.001 µM.

On to `N[C@@H](CCC(=O)O)C(=O)O` [Glu, Glutamate, reference compound], for which the “Increase of NeuN expression (western blot)” value in data set [3] is on record as “do not enhance NeuN expression significantly”. Also, the “Differentiation of PC12 strain #1 by the agent by itself” value in data set [4] is given as “do not have this effect”.

Turning to `CCN(C)C(=O)Oc1nc(-c2ccccc2)nc2ccccc12` [MGV-2, 2-phenylquinazolin-4-yl ethyl(methyl)carbamate], in the data set with U118MG cells [1], the “Protection” value is recorded as “protect against lethal effects of glutamate; also recorded: already quite effective at 10 μM” and the “Lethal effects of the compound (LDH)” value is “undesired lethal effects at high concentrations (in particular 100 μM)”. Moreover, the “Prevention of cardiolipin oxidation / mitochondrial ROS generation induced by glutamate (NAO)” value with U118MG cells [5] is “prevent cardiolipin oxidation”. In the data set on U118MG cells [6], the “Prevention of collapse of the ΔΨm induced by glutamate (JC-1)” value is “prevention of the collapse of the ΔΨm”. In the data set on R6-2 mice, the “Effect on behavior and lifespan of R6-2 mice” value is “effects reminiscent of those of 2-Cl-MGV-1 and 2-Cl-MGV-2, but less consistent”. For the same molecule, in data set [2], the Ki came out at 0.08 ± 0.011 µM.

As to `CCN(CC)C(=O)Oc1nc(-c2ccccc2)nc2ccccc12` [MGV-3, 2-phenylquinazolin-4-yl diethylcarbamate], in the data set on U118MG cells [1], the “Protection” value was “protect against lethal effects of glutamate; also recorded: already quite effective at 10 μM” and the “Lethal effects of the compound (LDH)” value is listed as “undesired lethal effects at high concentrations (in particular 100 μM)”. Further, affinity in data set [2] was put at a Ki of 0.0026 ± 0.001 µM.

Take `CCC(C)N(C)C(=O)c1cc2ccccc2c(-c2ccccc2Cl)n1` (centres unmarked) [PK 11195, N-butan-2-yl-1-(2-chlorophenyl)-N-methylisoquinoline-3-carboxamide, reference compound]: the “Effect on behavior and lifespan of R6-2 mice” value with R6-2 mice is “did not show such effects”. Moreover, the “Neuronal differentiation of PC12 cells (neurite outgrowth)” value with PC12 cells is “can differentiate PC12 cells”.

B1: NGF: mouse NGF, 2.5S from Promega; classical agent to induce neuronal differentiation of PC12 cells (protein, UniProt P01139 122-241, looked up)
Beta-nerve growth factor: SSTHPVFHMGEFSVCDSVSVWVGDKTTATDIKGKEVTVLAEVNINNSVFRQYFFETKCRASNPVESGCRGIDSKHWNSYCTTTHTFVKALTTDEKQAAWRFIRIDTACVCVLSRKATRRG
In the case of B1, in data set [3], the “Increase of NeuN expression (western blot)” value is “do not enhance NeuN expression significantly”. In data set [4], the “Differentiation of PC12 strain #1 by the agent by itself” value is “do not have this effect”.
